The text below walks through data of PubChem BioAssay AID652101 (NMMLSC, 2013).

The source made the active and inactive calls.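 How the source made its calls: active means at least 15% inhibition at the top concentration together with an EC50 under 10 microM; inactive means the rest.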

Tested on in one assay: not listed separately
As to the kind of experiment: potency against LAMP-1 externalization in TALL-104 – TALL-104 cells, flow cytometry, CherryPick01, dose response (AID 652101).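 On inhibition: 0% = stimulated DMSO control and 100% = unstimulated control wells.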 The following applies: TALL-104 lytic granule exocytosis, LAMP-1 flow cytometry; at 15.1 µM (top of the series); stimulated with 1 µM thapsigargin, 50 nM PMA.
What is called inhibition is the relative decrease from the control value, in per cent. `C=CCNc1nc(NCc2ccc(N(C)C)cc2)c2sc(-c3ccccc3)cc2n1`: the inhibition is -13.9% (inactive).
Consider `COC(=O)[C@]12CCCCC=C1N(Cc1cccc3ccccc13)C(=O)[C@H](CC(=O)NCc1ccc(OC)c(OC)c1)C2`, for which the inhibition is 108% (inactive).
`CC(=O)Nc1ccc2sn(-c3ccccc3)c(=O)c2c1`: the inhibition was 81.8% (inactive).

The test system of the next assay is TALL-104 lytic granule exocytosis, LAMP-1 flow cytometry. Described as above. As to conditions: stimulated with 1 µM thapsigargin, 50 nM PMA.
As a reminder, the EC50 is the concentration giving half of the maximal effect. For `COc1ccc(N2C(=O)CC(Sc3nnc(-c4ccccc4)o3)C2=O)cc1` (stereo not drawn), the EC50 is 0.897 µM.
For the molecule `CCOC(=O)c1cc(-c2csc(Nc3c(C)cc(C)cc3C)n2)on1`, the EC50 is 3.44 µM.
On the same count and under the same terms, the same measure for `CCOC(=O)c1c(NC(=O)COc2ccccc2OCC)sc2c1CC(C)(C)NC2(C)C`: 1.2 µM.
On to `Cc1ccc(S(=O)(=O)n2ccc3c(OCCOCCNCc4ccc(F)cc4)cccc32)cc1`, for which the EC50 is 4.41 µM.
Take `Cc1cc(C)c2nc(C)cc(N/N=C/c3ccc(O)cc3)c2c1`: the EC50 is 4.47 µM.
As to `Cc1ccc(Nc2nc(NCc3ccco3)c3ccccc3n2)cc1`, the EC50 was 4.7 µM.
As for `CCN(CC)CCCNc1ccc(-c2nnc(-c3ccc(OCC(C)C)cc3)o2)cn1`, the EC50 was 2.35 µM.
On to `O=S(=O)(Nc1cc(Sc2ncn[nH]2)c(O)c2ccccc12)c1ccccc1`, for which the EC50 is 2.91 µM.
Same read-out and setting: then `O=C(Cn1sc2ccccc2c1=O)Nc1ccc(F)cc1`, with 5.2 µM; and `CCOc1ccc2[nH]c3c(N4CCc5ccccc5C4)ncnc3c2c1`, with 4.91 µM.
Consider `O=c1c2ccccc2sn1-c1ccccc1F`, for which the EC50 is 4.78 µM.
`COc1cccc(NC(=O)Nc2nc(-c3ccc(OC)c(OC)c3)cs2)c1`: the EC50 was 4.83 µM.
Turning to `O=C1C=CC(=O)N1N(c1ccccc1)c1ccccc1`, the EC50 was 5.02 µM.
Take `Fc1ccc(/C=C\c2nccc3c2[nH]c2ccccc23)cc1`: the EC50 was 1.66 µM.
Consider `Cc1ccc(-n2nnc3c(=O)oc4ccccc4c32)cc1`, for which the EC50 is 2.46 µM.
For the molecule `O=C(Cn1sc2ccccc2c1=O)NC12CC3CC(CC(C3)C1)C2`, the EC50 was 5.13 µM.
On to `COc1cccc(N2CCN(c3ncnc4c3[nH]c3ccc(F)cc34)CC2C)c1` (stereo not drawn), for which the EC50 is 1.33 µM.
Take `CCCCCCSc1cccc(-c2nc3ccccn3c2NCc2ccccc2)c1`: the EC50 was 7.71 µM.
In the case of `CCCS(=O)(=O)Nc1ccc(Nc2c3ccccc3nc3ccccc23)c(OC)c1`, the EC50 was 3.38 µM.
Turning to `CC1COCC(C)N1C1=C(Cl)C(=O)c2ccccc2C1=O` (stereo not drawn), the EC50 is 1.61 µM.
Regarding `O=C(OCc1ccccc1)N(CCCCN(CCCNCc1ccccc1)C(=O)OCc1ccccc1)CCCNCc1ccccc1`, the EC50 was 1.24 µM.
Take `COc1ccc(-n2sc3ccccc3c2=O)cc1`: the EC50 is 9 µM.
Regarding `CCCCC[C@@H](C)N1C[C@@H](COCc2ccccc2)Oc2cc(N3CC[C@@H](N(C)C)C3)ccc2S1(=O)=O`, the EC50 was 4.57 µM.
Still for that read-out and setting: the same measure for `COc1ccccc1CNc1nc(NCc2ccc3occc3c2)c2sccc2n1`: 4.23 µM.
With `O=c1c2ccccc2sn1-c1ccccc1`, the EC50 was 2.36 µM.
Turning to `CC1=NOC(=O)/C1=C/c1ccc(-c2ccc(Cl)cc2)o1`, the EC50 is 1.68 µM.
On to `O=C1Nc2ccc(Br)cc2/C1=C/C(=O)c1ccccc1`, for which the EC50 is 3.13 µM.
Turning to `CCc1ccc(/C=C2/Sc3ccccc3N(CC(=O)NCCCN3CCOCC3)C2=O)cc1`, the EC50 is 5.17 µM.
Consider `O=C1CC(Sc2nnnn2-c2ccccc2)C(=O)N1c1cccc(Cl)c1` (stereo not drawn), for which the EC50 was 0.289 µM.
Turning to `Cc1cc(N2CCN(c3nc(-c4ccc([N+](=O)[O-])cc4)cs3)CC2)c2ccccc2n1`, the EC50 was 1.62 µM.
With `CN1CCN(Cc2nc3ccccc3c(=O)n2Cc2nc(-c3ccc([N+](=O)[O-])cc3)cs2)CC1`, the EC50 was 6.16 µM.
As to `CN1Cc2c(N3CCOCC3)nc3sc(C(=O)c4ccc(Br)cc4)c(N)c3c2CC1(C)C`, the EC50 is 3.23 µM.
On to `N#Cc1c(Nc2ccccc2Cl)s[nH]c1=O`, for which the EC50 was 3.82 µM.
For `CCCCC[C@@H](C)N1C[C@@H](COCc2ccccc2)Oc2cc(N3CC[C@H](N(C)C)C3)ccc2S1(=O)=O`, the half-maximal effective concentration (EC50) was 9.73 µM.
For `COC(=O)c1c(NC(=O)c2nc3ccccc3s2)sc2c1CC(C)(C)NC2(C)C`, the EC50 was 6.27 µM.
